“And” between values parts separate entries of the source, which are not always exact repeats. Equal entries are not always repeated. “Also recorded” adds a separate entry of the source.
Tests used:
Aβ-infused mice = assay: Contextual and cued fear conditioning in Aβ42-infused mice (TSA); assay type: in vivo
Source text: HDAC inhibition rescues the defect in associative memory by Aβ elevation. The APP and PS1 transgenes could affect neuronal function through different mechanisms [B23, B24] (each herein incorporated by reference in its entirety), including direct effects by Aβ. Full-length APP and its cleavage products could differently impact H4 acetylation. To separate Aβ effects from other effects of APP and PS1 overexpression, we next determined whether Aβ per se is responsible for the deficit in H4 acetylation observed in our studies on transgenic mice. […] (each herein incorporated by reference in its entirety), we applied a preparation containing oligomeric Aβ42 (200 nM in a volume of […], slowly over 1 min) into dorsal hippocampi (FIG. 24A-B), 15 min prior to training for fear conditioning, with injection of TSA or vehicle (2 mg/kg body weight, 2 hrs prior to training, i.p.). Infusion occurred 5-7 days after implanting cannulas onto dorsal hippocampi. We found no difference in the freezing behavior among the 4 groups of mice during the training phase of the fear conditioning (F3,41=0.04188, p=0.9884, n=8-14/group; FIG. 24C). Twenty-four hours later, freezing behavior was decreased in Aβ-infused mice compared to vehicle-infused mice in the analysis of the contextual learning (F3,41=3.619, p=0.0209, n=8-14/group; FIG. 24C). Freezing in Aβ-infused mice was about 25% that of vehicle-infused mice [Aβ-infused mice: 8.580±2.119% vs. vehicle-infused mice: 31.46±5.373% n=12 and 11 males, respectively; t=3.147, p=0.0049; FIG. 24C].

APP/PS1 mice = assay: RAWM and fear conditioning in APP/PS1 mice (YF2); assay type: in vivo
Source text: Without being bound by theory, given that these experiments were obtained with a synthetic preparation of Aβ42, it is difficult to know if this is the same as Aβ that causes synaptic dysfunction in AD brains. Thus, we validated these experiments in an Aβ-depositing mouse model, the APP/PS1 mouse^[P35] (herein incorporated by reference in its entirety). These mice have been well characterized with respect to AD pathology^[P34-38] (each herein incorporated by reference in its entirety). They start to show synaptic and memory impairment as early as 3 months of age^[P34] (herein incorporated by reference in its entirety). Transgenic mice with a double mutation APP […]/PS1(M146L) (line 6.2) start to develop large plaques in cortex and hippocampus at the age of 8-10 weeks. They have a reduction in LTP by 3 months of age together with impairment of contextual fear memory and spatial working memory.

HDAC6 = biological target: T1, HDAC6 (Homo sapiens, UniProt Q9UBN7); assay: HDAC6 fluorogenic activity assay; conditions: for % Activity: Repeat1/Repeat2, listed as OA2
T1 sequence (Q9UBN7 1-1215): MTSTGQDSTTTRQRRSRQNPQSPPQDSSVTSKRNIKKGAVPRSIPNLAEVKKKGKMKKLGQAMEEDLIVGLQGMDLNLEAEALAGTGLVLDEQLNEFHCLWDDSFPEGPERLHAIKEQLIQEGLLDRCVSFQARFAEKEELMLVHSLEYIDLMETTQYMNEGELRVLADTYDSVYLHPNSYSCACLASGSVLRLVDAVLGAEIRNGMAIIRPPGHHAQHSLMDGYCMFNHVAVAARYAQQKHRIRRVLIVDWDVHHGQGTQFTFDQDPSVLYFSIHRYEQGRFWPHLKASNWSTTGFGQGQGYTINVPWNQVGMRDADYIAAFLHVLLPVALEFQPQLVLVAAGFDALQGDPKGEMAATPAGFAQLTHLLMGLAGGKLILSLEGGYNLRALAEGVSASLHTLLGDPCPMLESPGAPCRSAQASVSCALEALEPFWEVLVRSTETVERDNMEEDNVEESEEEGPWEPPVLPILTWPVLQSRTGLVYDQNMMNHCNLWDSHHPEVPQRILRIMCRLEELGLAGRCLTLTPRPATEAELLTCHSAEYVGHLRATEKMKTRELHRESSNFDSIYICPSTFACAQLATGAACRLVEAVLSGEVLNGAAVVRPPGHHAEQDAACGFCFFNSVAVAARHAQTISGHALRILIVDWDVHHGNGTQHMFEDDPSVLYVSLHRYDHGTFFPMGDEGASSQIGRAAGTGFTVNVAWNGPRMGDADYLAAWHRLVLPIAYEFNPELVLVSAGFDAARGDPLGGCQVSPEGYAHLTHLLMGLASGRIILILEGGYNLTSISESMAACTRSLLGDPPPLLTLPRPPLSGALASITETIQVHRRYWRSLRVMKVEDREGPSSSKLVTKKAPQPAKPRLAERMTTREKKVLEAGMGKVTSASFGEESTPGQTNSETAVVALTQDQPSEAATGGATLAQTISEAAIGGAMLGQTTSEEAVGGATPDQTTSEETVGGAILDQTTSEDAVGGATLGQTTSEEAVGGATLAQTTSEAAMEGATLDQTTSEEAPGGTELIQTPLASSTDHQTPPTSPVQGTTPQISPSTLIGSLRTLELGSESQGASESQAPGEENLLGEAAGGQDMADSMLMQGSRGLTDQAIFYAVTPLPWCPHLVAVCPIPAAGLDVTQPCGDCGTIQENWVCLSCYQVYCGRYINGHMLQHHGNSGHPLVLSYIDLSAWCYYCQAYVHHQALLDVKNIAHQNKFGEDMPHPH

Aβ42-treated slices = assay: LTP in Aβ42-treated hippocampal slices (YF2); conditions: 200 nM Aβ42-treated slices; YF2 1 μM for 30 min prior to the θ-burst
Method: Next, we checked if YF2 could attenuate synaptic and cognitive dysfunction after Aβ elevation. […] Next, we induced LTP or contextual fear memory as well as reference memory in the presence of oligomeric Aβ42, or vehicle. In the LTP experiments 200 nM Aβ42 or vehicle were perfused through the bath solution for 20 min prior to the application of the θ-burst. In the behavioral experiments 200 nM Aβ42 (in a final volume of 1 μl over 1 min) or vehicle were bilaterally infused 15 min prior to the foot shock or 15 min prior to the 1st trial (for the 1st group of tests in a 2-day radial arm water maze (RAWM) test assessing reference memory^[P34] (herein incorporated by reference in its entirety)) and 15 min prior to the 7th trial (for the 2nd group of tests of the RAWM) into dorsal hippocampus of the animal that had been pre-implanted with a cannula the week before. Aβ reduced LTP and both reference and contextual fear memory (FIG. 66).

Row | Compound | freezing time relative to Aβ-infused mice (Aβ-infused mice; Aβ-infused mice injected with TSA) | deficit in freezing responses in Aβ-infused mice (Aβ-infused mice; TSA i.p. 2 hrs before training) | freezing, contextual fear conditioning 24 hrs after training (Aβ-infused mice; TSA+Aβ treated mice, TSA 2 mg/kg i.p. 2 hrs prior to training, Aβ42 200 nM) [%] | freezing, contextual fear conditioning 24 hrs after training (Aβ-infused mice; TSA-treated, vehicle-infused mice) [%] | cued fear conditioning, freezing among the 4 groups (Aβ-infused mice; pre-CS and CS) | reference memory defect (RAWM) (APP/PS1 mice; APP/PS1 mice, 20 mg/Kg i.p. 30 min before 1st and 2nd group of tests, 20 mg/kg) | contextual fear memory deficit (APP/PS1 mice; APP/PS1 mice, 20 mg/Kg i.p. 30 min before training for FC, 20 mg/kg) | memory in WT mice (APP/PS1 mice; WT littermates, 20 mg/Kg i.p.) | IC50 (HDAC6) [µM] | % Activity (HDAC6; OA2 Log[nM] 0.5) | % Activity (HDAC6; OA2 Log[nM] 1.0) | % Activity (HDAC6; OA2 Log[nM] 1.5) | % Activity (HDAC6; OA2 Log[nM] 2.0) | % Activity (HDAC6; OA2 Log[nM] 2.5) | % Activity (HDAC6; OA2 Log[nM] 3.0) | % Activity (HDAC6; OA2 Log[nM] 3.5) | % Activity (HDAC6; OA2 Log[nM] 4.0) | % Activity (HDAC6; OA2 Log[nM] 4.5) | % Activity (HDAC6; OA2 Log[nM] 5.3) | LTP deficit (Aβ42-treated slices)
1 | CC(/C=C/C(=O)NO)=C\[C@@H](C)C(=O)c1ccc(N(C)C)cc1 [TSA, trichostatin A] | about 300% | ameliorates | 26.17±4.747 | 27.01±7.246 | did not find a difference |  |  |  |  |  |  |  |  |  |  |  |  |  |  | 
2 | CCOc1cccc(OCCN(C)C)c1C(=O)Nc1ccc(Cl)c(C(F)(F)F)c1 [YF2] |  |  |  |  |  | ameliorates; also recorded: rescued | ameliorates | without affecting | > 200 | 104.75% and 106.28% | 106.10% and 100.51% | 96.75% and 108.50% | 100.33% and 105.31% | 99.30% and 99.28% | 100.06% and 94.62% | 96.79% and 97.61% | 94.62% and 100.10% | 79.13% and 87.65% | 70.40% and 102.77% | ameliorated; also recorded: rescues

— US10640457B2, “Histone acetyltransferase activators and uses thereof” (The Trustees of Columbia University in the City of New York, priority 2009, dated 2020)
